Results: ChEMBL document CHEMBL1255477, “In vitro properties of BAL30072, a novel siderophore sulfactam with activity against multiresistant gram-negative bacilli” (Antimicrob Agents Chemother, 2010)
Converted amounts (≈) assume the structure as drawn. The source made the active and inactive calls. The rule behind the calls is not given here.

Tests used:
Proteus penneri = assay: Antimicrobial activity against Proteus penneri by broth dilution method; format: functional
Pseudomonas aeruginosa [1] = assay: Antimicrobial activity against Pseudomonas aeruginosa BA(C1-106) selected after 25 ug/ml of compound exposure by broth dilution method; format: functional
Pseudomonas aeruginosa [2] = assay: microbe, parasite or virus in culture; conditions: BA
Description: Antimicrobial activity against Pseudomonas aeruginosa BA harboring beta-lactamase Class C by broth dilution method

Klebsiella pneumoniae [3] = assay: Antimicrobial activity against Klebsiella pneumoniae YC harboring beta-lactamase KPC-2,TEM-1and SHV-2 by broth dilution method; format: functional
Pseudomonas aeruginosa [4] = assay: Antimicrobial activity against Pseudomonas aeruginosa BA(C2-107) selected after 25 ug/ml of compound exposure by broth dilution method; format: functional
[5] = system: Stenotrophomonas maltophilia; assay: Antimicrobial activity against Stenotrophomonas maltophilia 1AC736 assessed as number of passages required for MIC to rise above 4 times original MIC; format: functional
Acinetobacter baumannii [6] = assay: Antimicrobial activity against Acinetobacter baumannii HPA 327009 harboring beta-lactamase OXA-25 by broth dilution method; format: functional
Pseudomonas aeruginosa [7] = assay: Antimicrobial activity against Pseudomonas aeruginosa 527 assessed as number of passages required for MIC to rise above 4 times original MIC; format: functional
Enterobacter cloacae [8] = assay: Antimicrobial activity against Enterobacter cloacae S4741B assessed as number of passages required for MIC to rise above 4 times original MIC; format: functional
Acinetobacter baumannii [9] = assay: Antimicrobial activity against Acinetobacter baumannii HPA 4737 harboring beta-lactamase OXA-26 by broth dilution method; format: functional
Pseudomonas aeruginosa [10] = assay: Antimicrobial activity against mexAB-oprM, mexCD-oprJ, mexEF-oprN, mexJK, mexXY, opmH and pscC gene deficient Pseudomonas aeruginosa PAO750 by broth dilution method; format: functional
Serratia marcescens [11] = assay: Antimicrobial activity against Serratia marcescens by broth dilution method; format: functional
Enterobacter cloacae [12] = assay: Antimicrobial activity against Enterobacter cloacae S9369 assessed as number of passages required for MIC to rise above 4 times original MIC; format: functional
Pseudomonas aeruginosa [13] = assay: Antimicrobial activity against oprD protein deficient Pseudomonas aeruginosa C2 by broth dilution method; format: functional
Pseudomonas aeruginosa [14] = assay: microbe, parasite or virus in culture; conditions: 18S/H
Description: Antimicrobial activity against Pseudomonas aeruginosa 18S/H harboring beta-lactamase Class C by broth dilution method

Serratia marcescens [15] = assay: Antimicrobial activity against Serratia marcescens 1T9 harboring beta-lactamase Class C by broth dilution method; format: functional
Providencia rettgeri [16] = assay: Antimicrobial activity against Providencia rettgeri J96 harboring beta-lactamase IMP-1 by broth dilution method; format: functional
Klebsiella oxytoca [17] = assay: Antimicrobial activity against Klebsiella oxytoca 1028E harboring beta-lactamase K1 by broth dilution method; format: functional
Providencia stuartii = assay: Antimicrobial activity against Providencia stuartii by broth dilution method; format: functional
Escherichia coli [18] = assay: Antimicrobial activity against Escherichia coli by broth dilution method; format: functional
Burkholderia sp. = assay: Antimicrobial activity against Burkholderia sp. by broth dilution method; format: functional
Pseudomonas aeruginosa [19] = assay: Antimicrobial activity against Pseudomonas aeruginosa by broth dilution method; format: functional
Proteus vulgaris = assay: Antimicrobial activity against Proteus vulgaris by broth dilution method; format: functional
Pseudomonas aeruginosa [20] = assay: Antimicrobial activity against Pseudomonas aeruginosa 1973E harboring beta-lactamase PSE-1 and class C enzymes by broth dilution method; format: functional
Escherichia coli [21] = assay: Antimicrobial activity against Escherichia coli Libyien harboring beta-lactamase CMY-2 by broth dilution method; format: functional
Pseudomonas aeruginosa [22] = assay: Antimicrobial activity against Pseudomonas aeruginosa B4 by broth dilution method; format: functional
Pseudomonas aeruginosa [23] = assay: Antimicrobial activity against Pseudomonas aeruginosa HPA10586 harboring beta-lactamase VIM-1 by broth dilution method; format: functional
Pseudomonas aeruginosa [24] = assay: Antimicrobial activity against mexAB-oprM protein and mexCD-oprJ deficient Pseudomonas aeruginosa PAO253 overexpressing MexEF-OprN gene by broth dilution method; format: functional
Escherichia coli [25] = assay: Antimicrobial activity against Escherichia coli A harboring beta-lactamase CTX-M 15 by broth dilution method; format: functional
Pseudomonas aeruginosa [26] = assay: Antimicrobial activity against Pseudomonas aeruginosa BA by broth dilution method; format: functional; conditions: Pseudomonas aeruginosa, BA; read-out: MIC
Serratia marcescens [27] = assay: Antimicrobial activity against Serratia marcescens S6 harboring beta-lactamase SME-1.AmpC by broth dilution method; format: functional
Acinetobacter sp. = assay: Antimicrobial activity against Acinetobacter sp. by broth dilution method; format: functional
Klebsiella pneumoniae [28] = assay: Antimicrobial activity against Klebsiella pneumoniae by broth dilution method; format: functional
Escherichia coli [29] = assay: Antimicrobial activity against Escherichia coli nmcA harboring beta-lactamase NMCA by broth dilution method; format: functional
Pseudomonas aeruginosa [30] = assay: Antimicrobial activity against Pseudomonas aeruginosa 1937E harboring beta-lactamase PSE-4 and class C enzymes by broth dilution method; format: functional
Pseudomonas aeruginosa [31] = assay: Antimicrobial activity against Pseudomonas aeruginosa 621 assessed as number of passages required for MIC to rise above 4 times original MIC; format: functional
Klebsiella pneumoniae [32] = assay: Antimicrobial activity against Klebsiella pneumoniae 26768WU harboring beta-lactamase SHV-5 by broth dilution method; format: functional
Escherichia coli [33] = assay: Antimicrobial activity against Escherichia coli K802N harboring beta-lactamase TEM-3 by broth dilution method; format: functional
Pseudomonas aeruginosa [34] = assay: Antimicrobial activity against mexAB-oprM protein and mexCD-oprJ deficient Pseudomonas aeruginosa PAO238 by broth dilution method; format: functional
Klebsiella oxytoca [35] = assay: Antimicrobial activity against Klebsiella oxytoca by broth dilution method; format: functional
Proteus mirabilis = assay: Antimicrobial activity against Proteus mirabilis by broth dilution method; format: functional
Klebsiella pneumoniae [36] = assay: Antimicrobial activity against Klebsiella pneumoniae CRE harboring beta-lactamase KPC-2 by broth dilution method; format: functional
Pseudomonas aeruginosa [37] = assay: Antimicrobial activity against Pseudomonas aeruginosa HPA996 harboring beta-lactamase VIM-2 by broth dilution method; format: functional
Pseudomonas aeruginosa [38] = assay: Antimicrobial activity against mexAB-oprM protein and mexZ deficient Pseudomonas aeruginosa PAO267 by broth dilution method; format: functional
Pseudomonas aeruginosa [39] = assay: Antimicrobial activity against Pseudomonas aeruginosa HPA101-1477 harboring beta-lactamase IMP-1 by broth dilution method; format: functional
Escherichia coli [40] = assay: Antimicrobial activity against Escherichia coli CF102 harboring beta-lactamase TEM-3 by broth dilution method; format: functional
Enterobacter cloacae [41] = assay: Antimicrobial activity against Enterobacter cloacae by broth dilution method; format: functional
Pseudomonas aeruginosa [42] = assay: Antimicrobial activity against Pseudomonas aeruginosa BA assessed as number of passages required for MIC to rise above 4 times original MIC; format: functional
Klebsiella pneumoniae [43] = assay: Antimicrobial activity against Klebsiella pneumoniae 1357E harboring beta-lactamase TEM-10 by broth dilution method; format: functional
Providencia rettgeri [44] = assay: Antimicrobial activity against Providencia rettgeri by broth dilution method; format: functional
[45] = system: Stenotrophomonas maltophilia; assay: Antimicrobial activity against Stenotrophomonas maltophilia B715 harboring beta-lactamase L1and L2 by broth dilution method; format: functional
Acinetobacter baumannii [46] = assay: Antimicrobial activity against Acinetobacter baumannii HPA I-16 harboring beta-lactamase OXA-27 by broth dilution method; format: functional
Citrobacter freundii = assay: Antimicrobial activity against Citrobacter freundii by broth dilution method; format: functional
[47] = system: Stenotrophomonas maltophilia; assay: Antimicrobial activity against Stenotrophomonas maltophilia by broth dilution method; format: functional
Klebsiella pneumoniae [48] = assay: Antimicrobial activity against Klebsiella pneumoniae 1338665 assessed as number of passages required for MIC to rise above 4 times original MIC; format: functional
Acinetobacter baumannii [49] = assay: Antimicrobial activity against Acinetobacter baumannii HPA74510 harboring beta-lactamase IMP-4 by broth dilution method; format: functional
Klebsiella aerogenes = assay: Antimicrobial activity against Enterobacter aerogenes by broth dilution method; format: functional
Enterobacter cloacae [50] = assay: Antimicrobial activity against Enterobacter cloacae 908R harboring beta-lactamase AmpC by broth dilution method; format: functional
Pseudomonas aeruginosa [51] = assay: microbe, parasite or virus in culture; conditions: PAO1
Description: Antimicrobial activity against Pseudomonas aeruginosa PAO1 by broth dilution method

Acinetobacter baumannii [52] = assay: Antimicrobial activity against Acinetobacter baumannii HPA74510 assessed as number of passages required for MIC to rise above 4 times original MIC; format: functional
Acinetobacter junii = assay: Antimicrobial activity against Acinetobacter junii 15218 assessed as number of passages required for MIC to rise above 4 times original MIC; format: functional
Escherichia coli [53] = assay: Antimicrobial activity against Escherichia coli HB101 harboring beta-lactamase TEM-5 by broth dilution method; format: functional

## C[C@@H](O)[C@H]1C(=O)N2C(C(=O)O)=C(SCCNC=N)C[C@H]12 [IMIPENEM ANHYDROUS]
Proteus penneri
  MIC50: 4 µg/mL (≈ 13.4 µM)
  MIC90: 8 µg/mL (≈ 26.7 µM)
Pseudomonas aeruginosa [1]
  MIC: 1 µg/mL (≈ 3.34 µM)
Pseudomonas aeruginosa [2]
  MIC: 1 µg/mL (≈ 3.34 µM)
Klebsiella pneumoniae [3]
  MIC: > 32 µg/mL
Pseudomonas aeruginosa [4]
  MIC: 1 µg/mL (≈ 3.34 µM)
[5]
  Activity: inactive
Acinetobacter baumannii [6]
  MIC: > 32 µg/mL
Pseudomonas aeruginosa [7]
  Activity: inactive
Enterobacter cloacae [8]
  Activity: 3 passages
Acinetobacter baumannii [9]
  MIC: > 32 µg/mL
Pseudomonas aeruginosa [10]
  MIC: 2 µg/mL (≈ 6.68 µM)
Serratia marcescens [11]
  MIC50: 2 µg/mL (≈ 6.68 µM)
  MIC90: 8 µg/mL (≈ 26.7 µM)
Enterobacter cloacae [12]
  Activity: 9 passages
Pseudomonas aeruginosa [13]
  MIC: 32 µg/mL (≈ 107 µM)
Pseudomonas aeruginosa [14]
  MIC: 4 µg/mL (≈ 13.4 µM)
Serratia marcescens [15]
  MIC: 1 µg/mL (≈ 3.34 µM)
Providencia rettgeri [16]
  MIC: > 32 µg/mL
Klebsiella oxytoca [17]
  MIC: 0.5 µg/mL (≈ 1.67 µM)
Providencia stuartii
  MIC50: 4 µg/mL (≈ 13.4 µM)
  MIC90: 16 µg/mL (≈ 53.4 µM)
Escherichia coli [18]
  MIC50: 0.25 µg/mL (≈ 0.835 µM)
  MIC90: 0.5 µg/mL (≈ 1.67 µM)
Burkholderia sp.
  MIC50: 32 µg/mL (≈ 107 µM)
  MIC90: > 32 µg/mL
Pseudomonas aeruginosa [19]
  MIC50: 4 µg/mL (≈ 13.4 µM)
  MIC90: > 32 µg/mL
Proteus vulgaris
  MIC50: 4 µg/mL (≈ 13.4 µM)
  MIC90: 8 µg/mL (≈ 26.7 µM)
Pseudomonas aeruginosa [20]
  MIC: 2 µg/mL (≈ 6.68 µM)
Escherichia coli [21]
  MIC: 1 µg/mL (≈ 3.34 µM)
Pseudomonas aeruginosa [22]
  MIC: 1 µg/mL (≈ 3.34 µM)
Pseudomonas aeruginosa [23]
  MIC: > 32 µg/mL
Pseudomonas aeruginosa [24]
  MIC: 4 µg/mL (≈ 13.4 µM)
Escherichia coli [25]
  MIC: 0.25 µg/mL (≈ 0.835 µM)
Pseudomonas aeruginosa [26]
  MIC: 1 µg/mL (≈ 3.34 µM)
Serratia marcescens [27]
  MIC: > 32 µg/mL
Acinetobacter sp.
  MIC50: 0.25 µg/mL (≈ 0.835 µM)
  MIC90: 32 µg/mL (≈ 107 µM)
Klebsiella pneumoniae [28]
  MIC50: 1 µg/mL (≈ 3.34 µM)
  MIC90: 16 µg/mL (≈ 53.4 µM)
Escherichia coli [29]
  MIC: > 32 µg/mL
Pseudomonas aeruginosa [30]
  MIC: 2 µg/mL (≈ 6.68 µM)
Pseudomonas aeruginosa [31]
  Activity: inactive
Klebsiella pneumoniae [32]
  MIC: 1 µg/mL (≈ 3.34 µM)
Escherichia coli [33]
  MIC: 32 µg/mL (≈ 107 µM)
Pseudomonas aeruginosa [34]
  MIC: 2 µg/mL (≈ 6.68 µM)
Klebsiella oxytoca [35]
  MIC50: 0.25 µg/mL (≈ 0.835 µM)
  MIC90: 1 µg/mL (≈ 3.34 µM)
Proteus mirabilis
  MIC50: 4 µg/mL (≈ 13.4 µM)
  MIC90: 8 µg/mL (≈ 26.7 µM)
Klebsiella pneumoniae [36]
  MIC: > 32 µg/mL
Pseudomonas aeruginosa [37]
  MIC: > 32 µg/mL
Pseudomonas aeruginosa [38]
  MIC: 1 µg/mL (≈ 3.34 µM)
Pseudomonas aeruginosa [39]
  MIC: > 32 µg/mL
Escherichia coli [40]
  MIC: 0.5 µg/mL (≈ 1.67 µM)
Enterobacter cloacae [41]
  MIC50: 2 µg/mL (≈ 6.68 µM)
  MIC90: 4 µg/mL (≈ 13.4 µM)
Pseudomonas aeruginosa [42]
  Activity: 4 passages
Klebsiella pneumoniae [43]
  MIC: 0.5 µg/mL (≈ 1.67 µM)
Providencia rettgeri [44]
  MIC50: 4 µg/mL (≈ 13.4 µM)
  MIC90: 16 µg/mL (≈ 53.4 µM)
[45]
  MIC: > 32 µg/mL
Acinetobacter baumannii [46]
  MIC: > 32 µg/mL
Citrobacter freundii
  MIC50: 1 µg/mL (≈ 3.34 µM)
  MIC90: 2 µg/mL (≈ 6.68 µM)
[47]
  MIC: > 32 µg/mL
  MIC50: > 32 µg/mL
  MIC90: > 32 µg/mL
Klebsiella pneumoniae [48]
  Activity: 2 passages
Acinetobacter baumannii [49]
  MIC: 16 µg/mL (≈ 53.4 µM)
Klebsiella aerogenes
  MIC50: 2 µg/mL (≈ 6.68 µM)
  MIC90: 16 µg/mL (≈ 53.4 µM)
Enterobacter cloacae [50]
  MIC: 1 µg/mL (≈ 3.34 µM)
Pseudomonas aeruginosa [51]
  MIC: 2 µg/mL (≈ 6.68 µM)
Acinetobacter baumannii [52]
  Activity: 1 passages
Acinetobacter junii
  Activity: 17 passages
Escherichia coli [53]
  MIC: 0.25 µg/mL (≈ 0.835 µM)
